# Measured values: paper PMC4546427, “Stereoselective Regulation of P-gp Activity by Clausenamide Enantiomers in Caco-2, KB/KBv and Brain Microvessel Endothelial Cells” (PLoS ONE, 2015)
# Assays:
# [1] = system: Caco-2 cells; test: Uptake of CLA enantiomers in Caco-2 cells (LC-MS/MS); assay type: in vitro ADME, Human; settings: for Intracellular concentration: Mean±SD, n = 3
# Procedure: Caco-2 cells on 6-well plates (5 × 10^5 cells/well) were cultured in MEM containing 10% (v/v) FBS, 1% (v/v) NEAA, 100 units/mL penicillin and 100 μg/mL streptomycin sulphate at 37°C with 95% air and 5% CO2. When 80%–90% confluence was observed using an inverted light microscope, the cells were treated, respectively, with (−)CLA or (+)CLA at 1, 2.5 and 5 μmol/L for 2 h, washed 3 times with ice-cold PBS, collected into 1.5-mL Eppendorf tubes and centrifuged at 1500 rpm for 5 min. The precipitates were lysed with 80 μL of lysis buffer described above, frozen with liquid nitrogen, then thawed in water at 37°C three times, and then centrifuged at 10,000 rpm for 10 min (4°C). We used 10 μL of supernatant for the determination of protein concentration using Lowry’s method with bovine serum albumin as the standard, and the residue of the supernatants was subjected to extraction with ethyl acetate. The internal standard (IS) was 20 μL of glipizide (5.2 μg/mL). Extracted CLA enantiomer and glipizide were measured by a liquid chromatography-tandem mass spectrometr(LC-MS/MS).
# The LC-MS/MS system consisted of an Alliance HT 2795 LC pump, an autosampler, and a Micromass Quattro Premier tandem quadrupole mass spectrometer with an electrospray ionization (ESI) source and Masslynx version 4.1 software (Waters Corp., Milford, MA, USA). The separation of CLA enantiomer and glipizide was performed using an XBridge C18 column (2.1 mm × 50 mm; i.d., 3.5 μm) (Waters Corp., Milford, MA, USA). The column temperature was maintained at 22°C, and the sample injection volume was 20 μL in the autosampler at 4°C. Mobile phases A and B were water with 0.1% (v/v) acetic acid and acetonitrile with 0.1% (v/v) acetic acid, respectively. Gradient elution was used at a flow rate of 0.25 mL/min for 8 min with 80% A and 20% B for 0–2 min, 5% A and 95% B for 2–4 min and 80% A and 20% B for 4.01–8 min. The LC system was connected to the mass spectrometer by an electrospray interface. The positive-ion ESI mode was selected, and the electrospray capillary voltage was 3.5 kV. Desolvation gas (ultrapure nitrogen) flow and cone gas flow were provided separately at rates of 600 L/h and 50 L/h, and source and desolvation temperatures were set at 110°C and 450°C, respectively. Argon was used as a collision gas in collision-induced dissociation of precursor ions at a flow rate of 0.27 mL/min. The data were acquired using multiple reaction monitoring mode and analysed by Masslynx software 4.1. The main parameters (retention time, ion channel, cone voltage and collision energy) were as follows: 2.66 min, 298.2–174.1, 25 V and 17 V for CLA enantiomer; and 2.97 min, 446.7–321.2, 25 V and 12 V for glipizide (IS), respectively. The lower limit of quantification of CLA enantiomer was 0.25 ng/mL. The mean relative recovery was 89%, and intra-assay and inter-assay coefficients of variation were <15%. The range of linearity was 0.25–200 ng/mL with r = 0.999. The concentrations of (−) or (+)CLA were quantified by standard curves according to their peak areas against the IS.
# [2] = system: P-gp; test: P-gp expression in KB cells: Western blots; assay type: cell-based, Human; settings: 5 μmol/L, 24 h, normalized to GAPDH
# Procedure: The sensitive, non-induced KB cells on 6-well plates were grown to 80%–90% confluence and incubated with the following agents for 24 h at 37°C and 5% CO2: vehicle, (−)CLA (1 or 5 μmol/L), (+)CLA (1 or 5 μmol/L), or verapamil (100 μmol/L). The cells were washed 3 times with ice-cold PBS (pH 7.4) and were lysed with 80 μL of lysis buffer described above. Lysates were frozen with liquid nitrogen, thawed in water at 37°C three times and centrifuged at 15,000 ×g for 10 min. The protein concentration of the supernatant was determined by Lowry’s method with bovine serum albumin as the standard. Proteins (48 μg) were separated by SDS-PAGE on a 10% separating gel and 4% stacking gel, and were transferred onto Immobilon-P membranes. The transferred proteins were treated with a blocking buffer (5% non-fat dried milk and 0.02% NP-40 in PBS) and then incubated with P-gp or GAPDH antibodies (at a 1:100 dilution) or HRP-conjugated secondary antibodies (1:1000 dilution) at 37°C for 1 h, respectively. The protein bands were visualized with enhanced chemiluminescence according to the manufacturer’s instructions. The density of the bands was quantified by scanning densitometry (LAS-3000 Imaging System, Fujifilm, Japan; and Kodak Digital Science 1D Analysis Software, Rochester, NY, USA) and was expressed as normalized values to GAPDH.
# [3] = dose of CLA enantiomer 1.0 μmol/L, 2 h
# [4] = dose of CLA enantiomer 2.5 μmol/L, 2 h
# [5] = dose of CLA enantiomer 5.0 μmol/L, 2 h
Structure (SMILES),"Intracellular concentration [1, 3] [ng/mL]","Intracellular concentration [1, 4] [ng/mL]","Intracellular concentration [1, 5] [ng/mL]",P-gp expression upregulated relative to vehicle control [2] [%],"Ratio (-)/(+) of intracellular concentrations ([1]; 1.0 μmol/L, 2 h)","Ratio (-)/(+) of intracellular concentrations ([1]; 2.5 μmol/L, 2 h)","Ratio (-)/(+) of intracellular concentrations ([1]; 5.0 μmol/L, 2 h)","Ratio (-)/(+) of intracellular concentrations ([1]; in the presence of cyclosporine A, data not shown)",P-gp expression downregulated relative to vehicle control [2] [%]
"CN1C(=O)[C@H](O)[C@@H](c2ccccc2)[C@H]1[C@H](O)c1ccccc1 [(+)CLA, 3R,4S,5S,6R-CLA]",1.093 ± 0.233,2.228 ± 0.065,4.677 ± 1.029,54.5,–,–,–,–,–
"CN1C(=O)[C@@H](O)[C@H](c2ccccc2)[C@@H]1[C@@H](O)c1ccccc1 [(−)CLA, 3S, 4R, 5R, 6S-clausenamide]",2.834 ± 0.808,4.829 ± 0.603,8.853 ± 2.505,–,2.593,2.167,1.893,1.091,15.9
